Measurements reported in US9175299B2, “Mutation involved in increased tolerance to imidazolinone herbicides in plants” (BASF AGROCHEMICAL PRODUCTS, B.V., priority 2004, dated 2015).

Legend:
[1] = test system: Shiloh-08; assay: Greenhouse screen of Shiloh-08 seedlings with imazamox at the three-leaf stage; assay type: in vivo, Triticum aestivum; conditions: twelve seeds, 40 g ai ha^−1 imazamox
[2] = test system: Shiloh; assay: Test cross EXP 2001-2 Winter, wild type check (Table 3); assay type: in vivo, Triticum aestivum; conditions: number of plants of 7; herbicide not given
Description: (§1) Two test-cross experiments of Shiloh-8 with a known Als1 line were performed.

[3] = test system: imi GDN; assay: Test cross EXP 2001-2 Winter, known Als1 line check (Table 3); assay type: in vivo; conditions: number of plants of 2; herbicide not given
Description: as §1

[4] = test system: 9604 (iFEDEL); assay: Multiple field imidazolinone herbicide imazamox tolerance comparisons (Table 5), standard tolerant control; assay type: in vivo, Triticum aestivum; conditions: scale 1-no effect 10-dead
Description: (§2) Agronomic and comparative imidazolinone herbicide imazamox tolerance were then evaluated under field conditions. Table 4 summarizes the yield and agronomic evaluations comparing Shiloh-8 and wild type Shiloh plants. These trials were typical cereal evaluation experiments using incomplete randomized block three replication design. Plots were 1.54 m×4.62 m at harvest. Table 5 summarizes multiple field imidazolinone herbicide imazamox tolerance comparisons between Shiloh-8 and the standard tolerant control […]. These plots ranged from a single row 1 m to larger 1.54 m×4.62 m plots.

[5] = test system: M3 Shiloh plants; assay: Tolerance rating of M3 progeny field plots sprayed with imazamox at the three-leaf stage; assay type: in vivo, Triticum aestivum
Description: Samples of 1,500 Shiloh variety seeds were each placed in a 1,000 ml beaker and covered with deionized water to at least 1 inch above the seed level. The beakers were then placed in a refrigerator at 4° C. for 15-20 hours. The seed samples were removed from the refrigerator and brought up to room temperature over an approximately 3 hour period by placing the beaker at room temperature. In some cases, the warming process was accelerated by adding deionized water to the beakers.
The deionized water was drained off the seeds, and the beaker was filled with a sodium azide solution to at least 1 inch above the seed level. The sodium azide solution was prepared by adding 27.218 g KH2PO4 to 1,500 ml deionized water, bringing the solution to pH 3 with concentrated H3PO4, and bringing the final solution to 2 L volume with deionized water. Just prior to use, 0.2604 g NaN3 was added, and the solution was kept in the dark. After addition of the sodium azide solution to the seeds, the beakers were incubated in a dark area at room temperature for 2 hours, with occasional stirring.
The sodium azide treatment solution was decanted, and the seed samples were rinsed twice with deionized water. Then the seed samples were covered with deionized water to at least 1 inch above seed level and soaked at room temperature for 1 hour, with occasional stirring. The deionized water was decanted, and the seeds were spread evenly on paper towels to dry. The seeds were planted in the field near Berthoud, Colo. in six 5 feet by 40 feet plots. Approximately 15 pounds of M2 seed were harvested, and approximately 466,000 seeds were planted near Platteville, Colo. The fields were sprayed with 1× (40 g ai ha^−1 (imazamox)) or 2× (80 g ai ha^−1 (imazamox)).
Plants tolerant to the herbicide were identified and transplanted into 1 gallon pots, and put into vernalization for 4 weeks at 45° F. Fourteen single plant selections were made out of the 2× rate area. The tolerant M2 plants were taken out of vernalization, grown out in a Berthoud, Colo. greenhouse, and M3 plants were planted in approximately 4 feet by 5 feet plots near Berthoud, Colo. The plots were sprayed with 80 g ai ha^−1 (imazamox) when the plants were at the three-leaf stage, and the results of the fourteen progenies were rated as shown in Table 1.

[6] = test system: iShiloh-8/imi GDN F2's; assay: Test cross EXP 2001-2 Winter, F2 screen for herbicide tolerance (Table 3); assay type: in vivo, Triticum aestivum
Description: as §1

[7] = test system: iSHILOH-08; assay: Multiple field imidazolinone herbicide imazamox tolerance comparisons (Table 5); assay type: in vivo, Triticum aestivum
Description: as §2

[8] = test system: iShiloh-8; assay: Test cross EXP 2001-2 Winter, parent check (Table 3); assay type: in vivo, Triticum aestivum; conditions: number of plants of 8; herbicide not given
Description: as §1

[9] = test system: iShiloh-8/iGDN F2's; assay: Test cross with a known Als1 line, F2 screen for herbicide tolerance (Table 2); assay type: in vivo, Triticum aestivum; conditions: test cross of Table 2; herbicide not named at this place
Description: as §1

[10] = number of plants of 167 F2's, herbicide not given

COCc1cnc(C2=NC(C)(C(C)C)C(=O)N2)c(C(=O)O)c1 (stereo not drawn) [imazamox]
Reaction of Shiloh-08 plants to imazamox screen [1]: confirmed a heritable homozygous reaction | DGP+ Brown sheath [2]: 7 | Dead or Dying growth point [2]: 0 | Strong Survivors [2]: 0 | Winkled or stunted [2]: 0 | DGP+ Brown sheath [3]: 0 | Dead or Dying growth point [3]: 0 | Strong Survivors [3]: 1 | Winkled or stunted [3]: 1 | ′99-′00 Rate D&O Plateville, CO (early) 4 oz/ac ([4]; 4 oz/ac, early): 1 | ′99-′00 Rate D&O Quinter, KS (early) 4 oz/ac ([4]; 4 oz/ac, early, spring application, temperature dropped 19° F. the night following application): 1 | ′99-′00 Rate D&O Quinter, KS (late) 4 oz/ac ([4]; 4 oz/ac, late, spring application, temperature dropped 19° F. the night following application): 8 | ′99-′00 Rate D&O Plateville, CO (early) 8 oz/ac ([4]; 8 oz/ac, early): 2 | ′99-′00 Rate D&O Quinter, KS (early) 8 oz/ac ([4]; 8 oz/ac, early, spring application, temperature dropped 19° F. the night following application): 2 | ′99-′00 Rate D&O Quinter, KS (late) 8 oz/ac ([4]; 8 oz/ac, late, spring application, temperature dropped 19° F. the night following application): 8 | Tolerance of M3 Shiloh plants to 80 g ai ha^−1 (imazamox) ([5]; line Shiloh-01, 80 g ai ha^−1, three-leaf stage): Medium MR-MS | Tolerance of M3 Shiloh plants to 80 g ai ha^−1 (imazamox) ([5]; line Shiloh-03, 80 g ai ha^−1, three-leaf stage): Discard-Sensitive | Tolerance of M3 Shiloh plants to 80 g ai ha^−1 (imazamox) ([5]; line Shiloh-04, 80 g ai ha^−1, three-leaf stage): Discard-Sensitive | Tolerance of M3 Shiloh plants to 80 g ai ha^−1 (imazamox) ([5]; line Shiloh-05, 80 g ai ha^−1, three-leaf stage): Discard-Sensitive | Tolerance of M3 Shiloh plants to 80 g ai ha^−1 (imazamox) ([5]; line Shiloh-06, 80 g ai ha^−1, three-leaf stage): Discard-Sensitive | Tolerance of M3 Shiloh plants to 80 g ai ha^−1 (imazamox) ([5]; line Shiloh-07, 80 g ai ha^−1, three-leaf stage): Discard-Sensitive | Tolerance of M3 Shiloh plants to 80 g ai ha^−1 (imazamox) ([5]; line Shiloh-08, 80 g ai ha^−1, three-leaf stage): All Good MR-R | Tolerance of M3 Shiloh plants to 80 g ai ha^−1 (imazamox) ([5]; line Shiloh-09, 80 g ai ha^−1, three-leaf stage): Discard-Sensitive | Tolerance of M3 Shiloh plants to 80 g ai ha^−1 (imazamox) ([5]; line Shiloh-10, 80 g ai ha^−1, three-leaf stage): Discard-Sensitive | Tolerance of M3 Shiloh plants to 80 g ai ha^−1 (imazamox) ([5]; line Shiloh-11, 80 g ai ha^−1, three-leaf stage): Discard-Sensitive | Tolerance of M3 Shiloh plants to 80 g ai ha^−1 (imazamox) ([5]; line Shiloh-12, 80 g ai ha^−1, three-leaf stage): Discard-Sensitive | Tolerance of M3 Shiloh plants to 80 g ai ha^−1 (imazamox) ([5]; line Shiloh-13, 80 g ai ha^−1, three-leaf stage): Discard-Sensitive | Tolerance of M3 Shiloh plants to 80 g ai ha^−1 (imazamox) ([5]; line Shiloh-14, 80 g ai ha^−1, three-leaf stage): Medium MR-MS | DGP+ Brown sheath [6, 10]: 0 | Dead or Dying growth point [6, 10]: 0 | Strong Survivors [6, 10]: 140 | Winkled or stunted [6, 10]: 27 | Genetic segregation for tolerance in the F2 population ([6]; test cross of Table 3, herbicide not named at this place): no genetic segregation for tolerance | ′99-′00 Rate D&O Plateville, CO (early) 4 oz/ac ([7]; 4 oz/ac, early, scale 1-no effect 10-dead): 2 | ′99-′00 Rate D&O Quinter, KS (early) 4 oz/ac ([7]; 4 oz/ac, early, scale 1-no effect 10-dead, spring application, temperature dropped 19° F. the night following application): 2 | ′99-′00 Rate D&O Quinter, KS (late) 4 oz/ac ([7]; 4 oz/ac, late, scale 1-no effect 10-dead, spring application, temperature dropped 19° F. the night following application): 5 | ′99-′00 Rate D&O Plateville, CO (early) 8 oz/ac ([7]; 8 oz/ac, early, scale 1-no effect 10-dead): 3 | ′99-′00 Rate D&O Quinter, KS (early) 8 oz/ac ([7]; 8 oz/ac, early, scale 1-no effect 10-dead, spring application, temperature dropped 19° F. the night following application): 3 | ′99-′00 Rate D&O Quinter, KS (late) 8 oz/ac ([7]; 8 oz/ac, late, scale 1-no effect 10-dead, spring application, temperature dropped 19° F. the night following application): 6 | Sum ′99 M3 Progeny Rating (8 oz/ac) Field ([7]; 8 oz/ac, field): R-MR | DGP+ Brown sheath [8]: 0 | Dead or Dying growth point [8]: 0 | Strong Survivors [8]: 7 | Winkled or stunted [8]: 1 | Genetic segregation for tolerance in the F2 population [9]: no genetic segregation for tolerance
